This is an account of results in paper PMC6539584, “Mosquito Acetylcholinesterase as a Target for Novel Phenyl-Substituted Carbamates” (International Journal of Environmental Research and Public …, 2019).

The first assay deals with T1, hAChE (Homo sapiens, UniProt P22303).
T1 construct: gene ACHE; commercial recombinant human enzyme (Sigma-Aldrich)
T1 sequence (P22303 32-614): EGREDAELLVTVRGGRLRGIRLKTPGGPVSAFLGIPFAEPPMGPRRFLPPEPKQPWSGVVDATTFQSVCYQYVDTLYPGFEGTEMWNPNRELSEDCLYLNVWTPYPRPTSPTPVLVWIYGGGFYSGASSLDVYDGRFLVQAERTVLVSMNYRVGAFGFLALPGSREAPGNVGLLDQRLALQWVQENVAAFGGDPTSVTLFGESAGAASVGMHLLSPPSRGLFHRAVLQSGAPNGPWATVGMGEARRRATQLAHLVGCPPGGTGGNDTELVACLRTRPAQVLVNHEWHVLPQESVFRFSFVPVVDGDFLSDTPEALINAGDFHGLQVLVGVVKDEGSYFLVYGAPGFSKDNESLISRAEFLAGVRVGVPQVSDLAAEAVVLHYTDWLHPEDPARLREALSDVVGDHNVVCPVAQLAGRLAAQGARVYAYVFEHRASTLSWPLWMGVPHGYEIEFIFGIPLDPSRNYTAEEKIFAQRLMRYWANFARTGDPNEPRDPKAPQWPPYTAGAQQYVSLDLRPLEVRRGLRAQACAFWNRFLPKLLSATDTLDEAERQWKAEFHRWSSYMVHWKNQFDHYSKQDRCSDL
Put plainly: Ellman assay, 96-well, […] nm. The conditions noted are these: acetylthiocholine, pH 7.8, 10 min pre-incubation, 0.1% DMSO; covalent; read-out: hAChE IC50 ^a; cited from earlier work. It counts as biochemical.
Take `CNC(=O)Oc1cccc([Si](C)(C)C)c1` [3a]: the IC50 was 490 nM.
Take `CC[Si](C)(C)c1cccc(OC(=O)NC)c1` [4a]: the IC50 is 630 nM.

Still in this assay, the particulars now being: read-out: hAChE IC50 ^a; acetylthiocholine, pH 7.8, 10 min pre-incubation, 0.1% DMSO; covalent; cited from earlier work.
For the molecule `CCC(CC)CSc1ccccc1OC(=O)NC` [5a], the IC50 is 5000 nM.

The same assay, now with this note: read-out: hAChE ^aIC50; acetylthiocholine, pH 7.8, 10 min pre-incubation, 0.1% DMSO; covalent; cited from earlier work.
Regarding `CNC(=O)Oc1cccc(C(C)(C)C)c1` [1a, 3-tert-butylphenyl methylcarbamate], the IC50 is 320 nM.

The target of another assay is T1, hAChE. Nature of the assay: Ellman assay, 96-well, […] nm. The class given is biochemical.
Conditions: not given
In turn, `CNC(=O)Oc1ccc(Br)c(C(C)(C)C)c1` [1b, 4-bromo-3-(tert-butyl)phenyl methylcarbamate] registered an IC50 of 1200 nM.
Still for that read-out and setting: the value for `CNC(=O)Oc1cc(C(C)(C)C)ccc1Br` [1d, 2-bromo-5-(tert-butyl)phenyl methylcarbamate] was 48 nM; that for `CNC(=O)Oc1cc(C(C)(C)C)ccc1I` [1e, 5-(tert-butyl)-2-iodophenyl methylcarbamate] was 640 nM; that for `CCCCCCc1ccc(C(C)(C)C)cc1OC(=O)NC` [1f, 5-(tert-butyl)-2-hexylphenyl methylcarbamate] was 6300 nM.
The molecule `C=CCNC(=O)c1ccc(OC(=O)NC)cc1C(C)(C)C` [1h, 4-(allylcarbamoyl)-3-(tert-butyl)phenyl methylcarbamate] showed an IC50 of 2800 nM.
Still for that read-out and setting: then `CNC(=O)Oc1ccc(C(=O)NC)c(C(C)(C)C)c1` [1i, 3-(tert-butyl)-4-(methylcarbamoyl)phenyl methylcarbamate], with greater than 100000 nM; and `CNC(=O)Oc1ccc(C(=O)NCC(C)C)c(C(C)(C)C)c1` [1j, 3-(tert-butyl)-4-(isobutylcarbamoyl)phenyl methylcarbamate], with greater than 100000 nM; and `CCN(CC)C(=O)c1ccc(OC(=O)NC)cc1C(C)(C)C` [1k, 3-(tert-butyl)-4-(diethylcarbamoyl)phenyl methylcarbamate], with 2300 nM.
Regarding `CNC(=O)Oc1cc(C(C)(C)C)ccc1SC` [1m, 5-(tert-butyl)-2-(methylthio)phenyl methylcarbamate], the IC50 is 640 nM.
For the molecule `CNC(=O)Oc1cc(C(C)(C)C)ccc1SCC(C)C` [1n, 5-(tert-butyl)-2-(isobutylthio)phenyl methylcarbamate], the IC50 amounted to 4700 nM.
Regarding `CNC(=O)Oc1cc(C(C)(C)C)ccc1SC(C)C` [1o, 5-(tert-butyl)-2-(isopropylthio)phenyl methylcarbamate], the IC50 worked out at 2200 nM.
Still for that read-out and setting: then `CNC(=O)Oc1ccc(C)c([Si](C)(C)C)c1` [3c, 4-methyl-3-(trimethylsilyl)phenyl methylcarbamate], with 2400 nM; and `CNC(=O)Oc1cc(F)cc([Si](C)(C)C)c1` [3g, 3-fluoro-5-(trimethylsilyl)phenyl methylcarbamate], with 4200 nM.
In turn, `CC[Si](C)(C)c1cc(OC(=O)NC)ccc1C` [4c, 3-(ethyldimethylsilyl)-4-methylphenyl methylcarbamate] gave an IC50 of 1400 nM.
With `CC[Si](C)(C)c1cc(F)cc(OC(=O)NC)c1` [4g, 3-(ethyldimethylsilyl)-5-fluorophenyl methylcarbamate], the IC50 came out at 1900 nM.
Take `CCCSc1ccccc1OC(=O)NC` [6a, 2-(propylthio)phenyl methylcarbamate]: the IC50 came out at 2300 nM.

The same assay, now with this note: acetylthiocholine, pH 7.8, 10 min pre-incubation, 0.1% DMSO; covalent; read-out: hAChE ^aIC50.
Regarding “3-(tert-butyl)-4-(ethyl(methyl)carbamoyl)phenyl methylcarbamate [1l]”, the IC50 came to 5500 nM.

Target in a further assay: not listed separately
Nature of the assay: Ellman assay, 96-well, […] nm. It counts as biochemical, Homo sapiens. The conditions noted are these: read-out: AgAChE, IC50, ^a nM.
In the case of `CNC(=O)Oc1cccc(C(F)(F)F)c1` [2a, 3-(trifluoromethyl)phenyl methylcarbamate], the IC50 is greater than 100000 nM.
